Measurements as given in publication PMC9695823, “Regioselective Synthesis of 6-O-Acetyl Dieckol and Its Selective Cytotoxicity against Non-Small-Cell Lung Cancer Cells” (Marine Drugs, 2022).

What was measured:
[1] = MTT cytotoxicity assay against normal cell line NIH/3T3; type: cell-based; conditions: mouse, NIH/3T3 normal cells, 24 h treatment, 0-500 μM, mean ± SD
Experimental: (§1) The cytotoxicity of DK and its various acyl and alkyl derivatives was assessed using the MTT assay against a non-small-lung cancer cell line (A549) and a normal cell line (NIH/3T3) at […] different concentrations (0, 0.005, 0.05, 0.5, 5, 50 and 500 μM). Among the newly synthesized acyl derivatives, the 6-O-acetyl (2) and 6-O-benzoyl (3) derivatives were included in this study, while the 6-O-propionyl (4) and 6-O-toluoyl (5) derivatives, which had been considered to be very similar to 6-O-acetyl (2) and 6-O-benzoyl (3) derivatives, respectively, were excluded from this study. […] The methyl and benzyl derivatives (6 and 7) were selected in parallel with acetyl and benzoyl (2 and 3) derivatives, respectively, to identify any impact of substitution chemistry (via sp^2 vs. sp^3 carbon in acylations and alkylations, respectively) and steric effect in cytotoxicity. Methoxymethyl (8), 3-(ethoxycarbonyl)propyl (9) and hydroxypropyl (10) derivatives were selected to determine the size effect of moderately polar substituents with a common heteroatom such as oxygen.
(§2) The non-small-cell lung cancer cell line A549 and the normal cell line NIH/3T3 were purchased from Korea Cell Line Research Foundation (Seoul, Korea). The cell lines were cultured in Dulbecco’s modified Eagle’s medium (DMEM) supplemented with 10% FBS and 1% penicillin–streptomycin at 37 °C with 5% CO2.
(§3) The cytotoxicity of DK and its derivatives was assessed by MTT assay, based on the reduction of MTT into insoluble formazan crystals by metabolically active cells. Briefly, the cells ([…]) were seeded in each well containing culture medium in a 96-well plate. After the incubation for 24 h at 37 °C, various concentrations of DK and its derivatives were added. […] The optical density was measured at 540 nm using a microplate spectrophotometer (Epoch; Agilent Technologies, Inc. Santa Clara, CA, USA). […] The IC50 values of DK and its derivatives were determined for the different cell lines by nonlinear regression using GraphPad Prism v6.0 software (La Jolla, CA, USA).

[2] = tested on: A549 cells; assay: MTT cytotoxicity assay against A549 non-small-cell lung cancer cells; type: cell-based; conditions: for IC50: Homo sapiens, A549
Experimental: as §1, §2
The cytotoxicity of DK and its derivatives was assessed by MTT assay, based on the reduction of MTT into insoluble formazan crystals by metabolically active cells. Briefly, the cells ([…]) were seeded in each well containing culture medium in a 96-well plate. After the incubation for 24 h at 37 °C, various concentrations of DK and its derivatives were added. After 24 h, 10 μL of the MTT reagent ([…]) was added, and the plates were incubated for an additional 2 h. The medium was discarded, and the formazan blue, which was formed in the cells, was dissolved in […] of dimethyl sulfoxide (DMSO). The optical density was measured at 540 nm using a microplate spectrophotometer (Epoch; Agilent Technologies, Inc. Santa Clara, CA, USA). The IC50 corresponded to a 50% decrease in the number of cells compared to the untreated control. The results are represented as the mean of three independent experiments. The IC50 values of DK and its derivatives were determined for the different cell lines by nonlinear regression using GraphPad Prism v6.0 software (La Jolla, CA, USA).

[3] = tested on: NSCLC (A549) cells vs. normal (NIH/3T3) cells; assay: Selectivity index, cytotoxicity A549 vs. NIH/3T3; type: cell-based; conditions: SI = IC50 (NIH/3T3 cells)/IC50 (A549 cells)
Description: The ideal anticancer drug should have a relatively high toxic concentration on normal cells with a very low active concentration on cancer cells. In this study, the cancer-selective cytotoxicity of DK derivatives has been studied for the first time. To address this selectivity issue, the selectivity index (SI), which is defined as the ratio of the toxic concentration of a sample against its effective bioactive concentration according to Equation (1) (see Section 4.7), was used. […] An SI value ≥ 10 was assumed to belong to a selected potential sample that can be further investigated. Therefore, the acetyl and hydroxypropyl DKs would be highly considered for further investigations as potential anti-NSCLC chemotherapeutic agents.
The selectivity index (SI) was determined to assess the selective cytotoxicity of the DK derivatives against NSCLC (A549) cells vs. normal (NIH/3T3) cells based on Equation (1):SI = IC50 (NIH/3T3 cells)/IC50 (A549 cells)(1)

[4] = tested on: NIH/3T3 cells; assay: MTT cytotoxicity assay against normal cell line NIH/3T3; type: cell-based; conditions: 24 h treatment, 0-500 μM, mean ± SD, listed as DK
Experimental: as §1, §2, §3

[5] = set-up: method as in PMID 35542614; conditions: estimated; cited from earlier work
[6] = MTT, 24 h treatment, 0-500 μM, mean ± SD

Compound | IC50 at 24 h [1] | times higher activity than 6-O-benzyl DK ([2]; A549 cells) | IC50 [2, 6] | SI Value (selectivity index) [3] | fold increase in IC50 compared with acetyl DK ([2]; A549 cells) | Cytotoxicity (IC50) NIH/3T3 [4] | Cytotoxicity (IC50) A549 ([2]; MTT, 24 h treatment, 0-500 μM, mean ± SD, listed as DK) | lowest pKa [5]
CC(=O)Oc1cc(O)cc2c1Oc1c(Oc3cc(O)c(Oc4cc(O)c5c(c4)Oc4c(O)cc(O)c(Oc6cc(O)cc(O)c6)c4O5)c(O)c3)c(O)cc(O)c1O2 [compound 2, 6-O-acetyl dieckol] | 481 µM | 120 times | 7.02 ± 1.53 µM | 68.58 |  |  |  | 
O=C(Oc1cc(O)cc2c1Oc1c(Oc3cc(O)c(Oc4cc(O)c5c(c4)Oc4c(O)cc(O)c(Oc6cc(O)cc(O)c6)c4O5)c(O)c3)c(O)cc(O)c1O2)c1ccccc1 [compound 3, 6-O-benzoyl dieckol] |  |  | 641 ± 17.9 µM |  | 91 fold |  |  | 
Oc1cc(O)cc(Oc2c(O)cc(O)c3c2Oc2c(O)cc(Oc4c(O)cc(Oc5c(O)cc(O)c6c5Oc5c(O)cc(O)cc5O6)cc4O)cc2O3)c1 [compound 1, Dieckol] |  |  |  |  |  | did not show detectable cytotoxicity | did not show detectable cytotoxicity | 5.0
OCCCOc1cc(O)cc2c1Oc1c(Oc3cc(O)c(Oc4cc(O)c5c(c4)Oc4c(O)cc(O)c(Oc6cc(O)cc(O)c6)c4O5)c(O)c3)c(O)cc(O)c1O2 [compound 10] | 563 ± 51.8 µM |  | 13.1 ± 5.06 µM | 43.07 |  |  |  | 
